Columns and labels:
[1] = system: subjects who had NAFLD in 31 IU/L or more of ALT; settings: 300 mg per day oral
[2] = system: Mice (C57/B6J) fed with high-fat food; settings: 20 weeks old
Description: Mice (C57/B6J, 8 weeks old male) were divided into 4 groups (5 animals each), and the first group (DB) was freely fed with ordinary food (CertifiedDiet “MF” manufactured by Oriental Yeast Co., ltd.). The second group (HFD) was freely fed with high-fat food (High Fat Diet 32, manufactured by CLEA Japan, Inc.), […].
When the mouse was 20 weeks old, the body weight, the liver weight, the serum aspartate aminotransferase (AST), the alanine aminotransferase (ALT), the serum triglyceride (TG), the free fatty acid value (FFA) and the total cholesterol value (T-cho) were measured.

[3] = HFD6 and HFD60 groups in comparison to HFD group
[4] = high-fat food, glutathione 6 and 60 mg/kg/day in water

`N[C@@H](CCC(=O)N[C@@H](CS)C(=O)NCC(=O)O)C(=O)O` [glutathione] was tested. Which “FibroScan (after treatment) CAP” value ([1]; after treatment, individual subject per table row) did it give?
Its value is 280 dBe.

What about the “improvement of ALT after administration in comparison to ALT before the administration (0 wk)” value ([1]; Case IDs 1 to 9 of 16 subjects, at any week after initiation) of the same molecule?
The value was ≥ 20%.

And the “FFA (free fatty acid value)” value [2, 3]?
Its value is “significant decrease”.

What about the “T-cho (total cholesterol value)” value [2, 3] of the same molecule?
The value was “significant decrease”.

And the liver weight [2, 4]?
Its liver weight is “decreased dependently on the concentration”.

And the “ratio of liver weight/body weight” value [2, 4]?
The value was “decrease of the body weight ratio was also recognized”.

And the body weight ([2]; high-fat food, glutathione 6 or 60 mg/kg/day in water)?
Its body weight is “decrease of the body weight was recognized”.

And the “TG (triglyceride value)” value ([2]; serum, HFD6 and HFD60 groups in comparison to HFD group)?
The value was “significant decrease”.

Reference: patent publication US20190125822A1, “COMPOSITION FOR IMPROVING OR PREVENTING NONALCOHOLIC FATTY LIVER” (KOHJIN LIFE SCIENCES CO., LTD., priority 2015, published 2019)
